Experimental findings from patent US20120142771A1, “BIPHENYLACETAMIDE DERIVATIVE” (Dainippon Sumitomo Pharma Co., Ltd., priority 2008, published 2012) are described below.

Assay [1] concerns subcutaneously pentetrazol-injected model (scPTZ). Put plainly: Subcutaneously pentetrazol-injected model (scPTZ) test. Format: in vivo, mice. As to conditions: pentetrazol 85 mg/kg s.c. after 1 hour; for responders at 100 mg/kg / responders at 50 mg/kg: Mus musculus, po, 1 h, read-out: scPTZ (positive number/tested number) (converted); for responders at 100 mg/kg / scPTZ (positive number/tested number) / responders at 50 mg/kg: Slc: ddY male mice, 3 per group, observed 30 minutes for clonic convulsion; for anticonvulsant action in subcutaneously pentetrazol-injected model (scPTZ) test: mice, oral 50 or 100 mg/kg. The source says:
In order to evaluate the antiepileptic activity of each drug, maximum electroshock seizure (MES) model, subcutaneously pentetrazol-injected model (scPTZ), and amygdala kindling model in rats were used because they show a good clinical prediction. […] Test with Subcutaneously Pentetrazol-Injected Model (scPTZ) Similar to Test 1, Test 2 evaluates the anticonvulsant action of medicaments. However, unlike Test 1, animal model used herein represents the clinical phenotypes of generalized absence seizure and myoclonic seizure. Test compounds (50 or 100 mg/kg) were orally administered to Slc: ddY male mice (3 mice in each group, body weight 20-30 g). After an hour, pentetrazol (85 mg/kg) was subcutaneously administered. […] To the control mice, 0.5% tragacanth solution or 0.5% methylcellulose solution was administered.

The test system of assay [2] is maximum electroshock seizure (MES) model. Description: Maximum electroshock seizure (MES) model test. The assay is classed as in vivo, mice. As to conditions: for responders at 50 mg/kg / responders at 100 mg/kg: Mus musculus, po, 1 h, read-out: MES (positive number/tested number) (converted); for responders at 50 mg/kg / responders at 100 mg/kg / MES (positive number/tested number): Slc: ddY male mice, 3 per group, electrical stimulation 1 hour after administration, inhibition of hind limb extension; for anticonvulsant action in maximum electroshock seizure (MES) model test: mice, oral 50 or 100 mg/kg, 1 hour after administration. The source says:
In order to evaluate the antiepileptic activity of each drug, maximum electroshock seizure (MES) model, subcutaneously pentetrazol-injected model (scPTZ), and amygdala kindling model in rats were used because they show a good clinical prediction.
Test 1: Test with Maximum Electroshock Seizure (MES) Model
Test 1 evaluates the anticonvulsant action of medicaments. Animal model used herein represents the clinical phenotypes of generalized tonic seizure and secondarily generalized tonic-clonic seizure. Test compounds (50 or 100 mg/kg) were orally administered to Slc: ddY male mice (3 mice in each group, body weight 20-30 g). After an hour of administration, their corneas were electrically stimulated (60 Hz, 25 mA, 0.2 second) to induce tonic convulsion (tonic extensor in their hind limbs). […] To the control mice, 0.5% tragacanth solution or 0.5% methylcellulose solution was administered.

Take `NC(=O)Cc1cc(F)c(F)cc1-c1ccccc1` [Example 110]: the values for the responders at 100 mg/kg in assay [1] (100 mg/kg oral) and in assay [2] (100 mg/kg oral) were 33.3% and 66.7%, respectively. Further, in assay [2] (50 mg/kg oral), the responders at 50 mg/kg was 0%.
For `NC(=O)Cc1cc(Cl)ccc1-c1ccc(F)cc1` [Example 129], the responders at 100 mg/kg in assay [1] (100 mg/kg oral) was 33.3%; in assay [2] (100 mg/kg oral), 100%.
In the case of `NC(=O)C(O)c1ccccc1-c1cc(F)cc(Cl)c1` (single isomer, unassigned) [Example 217, 2-(3′-Chloro-5′-fluorobiphenyl-2-yl)-2-hydroxyacetamide], the entries for the “scPTZ (positive number/tested number)” value in assay [1] (50 mg/kg oral) and in assay [1] (100 mg/kg oral) were 1/3 and 3/3, respectively. Moreover, the “MES (positive number/tested number)” value in assay [2] (50 mg/kg oral) is on record as 2/3.
For the compound `NC(=O)Cc1cc(OC(F)(F)F)ccc1-c1ccccc1` [Example 34], the responders at 50 mg/kg in assay [1] (50 mg/kg oral) is 33.3%. In addition, the values for the responders at 100 mg/kg in assay [1] (100 mg/kg oral) and in assay [2] (100 mg/kg oral) were 66.7% and 0%, respectively.
As for `CNC(=O)Cc1ccccc1-c1ccc(Cl)cc1` [Example 11], the responders at 100 mg/kg was 33.3% in assay [1] (100 mg/kg oral) and 100% in assay [2] (100 mg/kg oral). Further, the responders at 50 mg/kg in assay [2] (50 mg/kg oral) was 0%.
For `NC(=O)C(O)c1ccccc1-c1cc(Cl)ccc1F` (centres unmarked) [Example 194, 2-(5′-chloro-2′-fluorobiphenyl-2-yl)-2-hydroxyacetamide], the responders at 50 mg/kg in assay [1] (50 mg/kg oral) and in assay [2] (50 mg/kg oral) was 33.3% each time. In addition, the responders at 100 mg/kg in assay [1] (100 mg/kg oral) was 66.7%; in assay [2] (100 mg/kg oral), 100%.
As to `CNC(=O)Cc1ccc(F)cc1-c1cccc(F)c1` [Example 121], the responders at 100 mg/kg in assay [1] (100 mg/kg oral) is 33.3%; in assay [2] (100 mg/kg oral), 100%. Besides, the responders at 50 mg/kg in assay [2] (50 mg/kg oral) is 0%.
For the compound `COC(C(N)=O)c1ccccc1-c1ccc(F)cc1` (centres unmarked) [Example 203, 2-(4′-fluorobiphenyl-2-yl)-2-methoxyacetamide], the results for the responders at 50 mg/kg in assay [1] (50 mg/kg oral) and in assay [2] (50 mg/kg oral) were 66.7% and 33.3%, respectively. Moreover, the results for the responders at 100 mg/kg in assay [1] (100 mg/kg oral) and in assay [2] (100 mg/kg oral) were 100% and 66.7%, respectively.
For `NC(=O)Cc1ccccc1-c1ccc(F)c(Cl)c1` [Example 65], the responders at 100 mg/kg in assay [1] (100 mg/kg oral) is 33.3%; in assay [2] (100 mg/kg oral), 66.7%.
As for `NC(=O)Cc1c(F)cccc1-c1cccc(F)c1` [Example 140, 2-(3,3′-difluorobiphenyl-2-yl)acetamide], the responders at 50 mg/kg in assay [1] (50 mg/kg oral) is 66.7%; in assay [2] (50 mg/kg oral) it was 100%. Besides, the responders at 100 mg/kg in assay [1] (100 mg/kg oral) is 66.7%; in assay [2] (100 mg/kg oral) it was 100%. The “anticonvulsant action in subcutaneously pentetrazol-injected model (scPTZ) test” value in assay [1] is “anticonvulsant action was observed”. Moreover, the “anticonvulsant action in maximum electroshock seizure (MES) model test” value in assay [2] is reported as “anticonvulsant action was observed”.
In the case of `NC(=O)Cc1ccccc1-c1cc(F)ccc1F` [Example 152, 2-(2′,5′-difluorobiphenyl-2-yl)acetamide], the figures for the responders at 50 mg/kg in assay [1] (50 mg/kg oral) and in assay [2] (50 mg/kg oral) were 66.7% and 100%, respectively. Moreover, the responders at 100 mg/kg in assay [1] (100 mg/kg oral) and in assay [2] (100 mg/kg oral) was 100% in each case. Besides, the “anticonvulsant action in subcutaneously pentetrazol-injected model (scPTZ) test” value in assay [1] was “anticonvulsant action was observed”. For the same compound, the “anticonvulsant action in maximum electroshock seizure (MES) model test” value in assay [2] is “anticonvulsant action was observed”.
`CCNC(=O)Cc1ccccc1-c1ccccc1F` [Example 29]: the responders at 100 mg/kg in assay [1] (100 mg/kg oral) is 33.3%; in assay [2] (100 mg/kg oral) it was 66.7%. Besides, the responders at 50 mg/kg in assay [2] (50 mg/kg oral) was 0%.
On to `NC(=O)[C@@H](O)c1ccccc1-c1cc(Cl)cc(Cl)c1` [Example 216, 2-(3′,5′-dichlorobiphenyl-2-yl)-2S-hydroxyacetamide], for which the “scPTZ (positive number/tested number)” value in assay [1] (50 mg/kg oral) and in assay [1] (100 mg/kg oral) was 1/3 each time. The “MES (positive number/tested number)” value is recorded as 1/3 in assay [2] (50 mg/kg oral) and 2/3 in assay [2] (100 mg/kg oral).
Take `NC(=O)C(O)c1ccc(F)cc1-c1cc(Cl)cc(Cl)c1` (centres unmarked) [Example 184, 2-(3′,5′-dichloro-5-fluorobiphenyl-2-yl)-2-hydroxyacetamide]: the figures for the responders at 50 mg/kg in assay [1] (50 mg/kg oral) and in assay [2] (50 mg/kg oral) were 33.3% and 66.7%, respectively. Further, the responders at 100 mg/kg in assay [1] (100 mg/kg oral) was 66.7%; in assay [2] (100 mg/kg oral) it was 100%.
With `NC(=O)C(O)c1ccccc1-c1ccc(Cl)c(C(F)(F)F)c1` (centres unmarked) [Example 195], the responders at 100 mg/kg in assay [1] (100 mg/kg oral) was 33.3%; in assay [2] (100 mg/kg oral) it was 100%.
On the same counts, the results for `CNC(=O)Cc1ccccc1-c1ccc(F)cc1C(F)(F)F` [Example 104] are 0% and 100%.
As to `CNC(=O)Cc1ccccc1-c1cccc(Br)c1` [Example 55], the responders at 100 mg/kg is 0% in assay [1] (100 mg/kg oral) and 100% in assay [2] (100 mg/kg oral). In addition, the responders at 50 mg/kg in assay [2] (50 mg/kg oral) was 0%.
As for `COC(C(N)=O)c1ccccc1-c1ccccc1F` (centres unmarked) [Example 200, 2-(2′-fluorobiphenyl-2-yl)-2-methoxyacetamide], the responders at 50 mg/kg was 33.3% in assay [1] (50 mg/kg oral) and 0% in assay [2] (50 mg/kg oral). The responders at 100 mg/kg in assay [1] (100 mg/kg oral) was 66.7%; in assay [2] (100 mg/kg oral) it was 100%.
For the compound `CNC(=O)Cc1ccccc1-c1ccccc1Cl` [Example 17], the figures for the responders at 100 mg/kg in assay [1] (100 mg/kg oral) and in assay [2] (100 mg/kg oral) were 33.3% and 0%, respectively.
On to `CNC(=O)Cc1ccccc1-c1ccccc1C(F)(F)F` [Example 7, N-methyl-2-[2′-(trifluoromethyl)biphenyl-2-yl]acetamide], for which the figures for the responders at 50 mg/kg in assay [1] (50 mg/kg oral) and in assay [2] (50 mg/kg oral) were 0% and 66.7%, respectively. Moreover, the values for the responders at 100 mg/kg in assay [1] (100 mg/kg oral) and in assay [2] (100 mg/kg oral) were 66.7% and 100%, respectively.
With `CNC(=O)Cc1cc(F)c(F)cc1-c1cccc(F)c1` [Example 148], the responders at 100 mg/kg in assay [1] (100 mg/kg oral) is 33.3%; in assay [2] (100 mg/kg oral), 0%.
On to `CCNC(=O)Cc1ccccc1-c1ccccc1Cl` [Example 18], for which the responders at 100 mg/kg in assay [1] (100 mg/kg oral) was 33.3%; in assay [2] (100 mg/kg oral) it was 100%. Moreover, in assay [2] (50 mg/kg oral), the responders at 50 mg/kg is 0%.
With `NC(=O)Cc1ccc(F)cc1-c1ccc(F)cc1` [Example 122], the responders at 50 mg/kg in assay [1] (50 mg/kg oral) is 0%. Further, the responders at 100 mg/kg in assay [1] (100 mg/kg oral) was 66.7%; in assay [2] (100 mg/kg oral), 0%.
As for `CN(C)C(=O)Cc1cc(Cl)ccc1-c1ccccc1F` [Example 38], the responders at 50 mg/kg in assay [1] (50 mg/kg oral) was 0%. Moreover, the responders at 100 mg/kg in assay [1] (100 mg/kg oral) is 100%; in assay [2] (100 mg/kg oral), 0%.
For the compound `NC(=O)Cc1cc(C(F)(F)F)ccc1-c1ccc(Cl)cc1` [Example 137], the results for the responders at 100 mg/kg in assay [1] (100 mg/kg oral) and in assay [2] (100 mg/kg oral) were 66.7% and 0%, respectively.
On the same counts, the results for `NC(=O)Cc1cc(F)ccc1-c1ccc(Cl)cc1` [Example 131] are 0% and 100%.
As for `NC(=O)C(F)c1ccccc1-c1cccc(F)c1` (centres unmarked) [Example 160, 2-fluoro-2-(3′-fluorobiphenyl-2-yl)acetamide], the responders at 50 mg/kg in assay [1] (50 mg/kg oral) is 66.7%; in assay [2] (50 mg/kg oral) it was 33.3%. The responders at 100 mg/kg in assay [1] (100 mg/kg oral) was 100%; in assay [2] (100 mg/kg oral), 66.7%.
Turning to `NC(=O)Cc1ccc(Cl)cc1-c1cccc(Cl)c1` [Example 127], the responders at 100 mg/kg in assay [1] (100 mg/kg oral) was 33.3%; in assay [2] (100 mg/kg oral), 66.7%.
Consider `O=C(Cc1ccccc1-c1ccccc1F)NC1CC1` [Example 172], for which the results for the responders at 100 mg/kg in assay [1] (100 mg/kg oral) and in assay [2] (100 mg/kg oral) were 0% and 100%, respectively.
Take `CNC(=O)C(F)(F)c1ccccc1-c1ccccc1` [Example 168]: the responders at 100 mg/kg in assay [1] (100 mg/kg oral) was 33.3%; in assay [2] (100 mg/kg oral), 100%. The responders at 50 mg/kg in assay [2] (50 mg/kg oral) is 33.3%.
As to `CC(C(N)=O)c1ccccc1-c1cccc(F)c1` (centres unmarked) [Example 175, 2-(3′-fluorobiphenyl-2-yl)propanamide], the responders at 50 mg/kg in assay [1] (50 mg/kg oral) and in assay [2] (50 mg/kg oral) was 0% throughout. In addition, the responders at 100 mg/kg in assay [1] (100 mg/kg oral) was 100%; in assay [2] (100 mg/kg oral) it was 66.7%.
For the compound `NC(=O)Cc1ccccc1-c1cc(Cl)ccc1F` [Example 87, 2-(5′-chloro-2′-fluorobiphenyl-2-yl)acetamide], the responders at 50 mg/kg in assay [1] (50 mg/kg oral) was 0%; in assay [2] (50 mg/kg oral), 33.3%. For the same compound, the results for the responders at 100 mg/kg in assay [1] (100 mg/kg oral) and in assay [2] (100 mg/kg oral) were 66.7% and 100%, respectively.
